Columns and labels:
Assay type in all cases: cell-based
MLLT1 = target: T1, MLLT1 (Homo sapiens, UniProt Q03111); test: MLLT1 degradation assay in MV4-11 cells (JESS chemiluminescent detection), three concentrations, 24 h; details: with respect to DMSO control
T1 construct: host or cells: MV4-11
T1 sequence (Q03111 1-559): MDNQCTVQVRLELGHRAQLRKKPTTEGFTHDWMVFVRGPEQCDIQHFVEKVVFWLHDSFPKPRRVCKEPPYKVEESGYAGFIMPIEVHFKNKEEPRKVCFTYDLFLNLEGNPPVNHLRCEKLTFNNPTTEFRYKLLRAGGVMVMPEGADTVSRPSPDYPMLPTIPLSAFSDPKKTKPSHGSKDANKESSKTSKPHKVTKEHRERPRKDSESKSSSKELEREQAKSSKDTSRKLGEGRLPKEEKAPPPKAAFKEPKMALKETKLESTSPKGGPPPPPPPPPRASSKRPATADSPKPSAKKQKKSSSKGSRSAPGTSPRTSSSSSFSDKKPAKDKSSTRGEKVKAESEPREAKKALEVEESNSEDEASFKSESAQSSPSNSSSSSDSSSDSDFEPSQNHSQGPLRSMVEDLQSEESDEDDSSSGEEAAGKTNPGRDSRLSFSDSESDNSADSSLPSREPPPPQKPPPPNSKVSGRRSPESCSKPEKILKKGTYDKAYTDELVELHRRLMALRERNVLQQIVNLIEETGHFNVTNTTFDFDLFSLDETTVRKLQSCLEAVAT
Method in brief: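 Read-out is % MLLT1 degradation versus DMSO, from band peak areas on a JESS chemiluminescent system. Cells (MV4-11) were exposed for 24 h at 37° C to three compound levels, 10, 100 and 1000 nM, in 0.1% DMSO.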

MV4-11 cells [1] = test: MV4-11 cellular proliferative assay, Assay Format A (CellTiter-Glo, 120 hours); details: Homo sapiens
Experimental: An MV4-11 proliferation assay was used to test the ability of compounds to reduce cell viability. MV4-11 cells (ATCC #CRL9591) were grown in IMDM medium (11510596, Gibco) supplemented with 10% fetal bovine serum (F7524, Gibco) and 1% Penicillin/Streptomycin (15140-122, Gibco) at 37° C. with 5% CO2. Cells were seeded in 384-well Elplasia plates (4447, Corning) at a density of 50 cells/well and treated with vehicle (DMSO) or compounds (10 serial semi-log dilutions, 30 μM as top concentration).
After 120 hours of treatment, cells were incubated for 10 min at RT with the CellTiter-Glo (CTG) reagent (G7571, Promega). Measurement of the luminescence signal was performed on a microplate reader (Ensight, PerkinElmer). CTG reagent measures the amount of ATP, which is directly proportional to the number of cells, to determine the number of viable cells in culture.
The data were analysed as follows:
where x is the measured raw signal value of a well, (cr) is the median of the measured signal values for the Central Reference (DMSO) wells on a plate, (sr) is the median of the measured signal values for the Scale Reference (reference compound) wells on a plate.
where the experimental set-up assumes the Hill parameters in certain ranges: S0~Central Reference (CR) from normalization (=Bottom), Sinf~Scale Reference (SR) from normalization (=Top), nHill~1, AC50~within the measured concentration range.

MV4-11 cells [2] = test: MV4-11 cellular proliferative assay, Assay Format B (CTG 2.0, 168 h); details: Homo sapiens, 168 h (7 days), CTG 2.0, read-out: IC50 (MV4-11 cellular proliferative assay, Assay format B)
Method in brief: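 Viability read by CellTiter-Glo 2.0 luminescence after 7-day (168 h) compound exposure of MV4-11 cells in IMDM/10% FBS. Ten 3-fold concentrations starting at 1 uM or 100 nM, 0.3% final DMSO; curves normalised to DMSO control, four-parameter fit.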

SMILES | MLLT1% Degradation @ 0.1 μM (MLLT1) | MLLT1% Degradation @ 1 μM (MLLT1) | IC50 (MV4-11 cells [1]) | MLLT1% Degradation @ 0.01 μM (MLLT1) | IC50 (MV4-11 cells [2])
CN1CCC[C@@H]1c1cc2cnc(NC(=O)c3ccc(-c4cnn(CCCC5CCN(c6cccc7c6C(=O)N(C6CCC(=O)NC6=O)C7=O)CC5)c4)cc3)cc2[nH]1 (stereo partly drawn) [Example 34, 4-[1-(3-{1-[2-(2,6-dioxopiperidin-3-yl)-1,3-dioxoisoindol-4-yl]piperidin-4-yl}propyl)pyrazol-4-yl]-N-{2-[(2R)-1-methylpyrrolidin-2-yl]-1H-pyrrolo[3,2-c]pyridin-6-yl}benzamide] | A (Category A: A ≥ 75% degradation) | A (Category A: A ≥ 75% degradation) | ≤ 100 nM |  | 
CN1CCC[C@@H]1c1cc2cnc(NC(=O)c3ccc(-c4cnn(CCCC#Cc5ccc6c(c5)CN(C5CCC(=O)NC5=O)C6=O)c4)cc3)cc2[nH]1 (stereo partly drawn) [Example 22, 4-(1-(5-(2-(2,6-dioxopiperidin-3-yl)-1-oxoisoindolin-5-yl)pent-4-yn-1-yl)-1H-pyrazol-4-yl)-N-(2-((R)-1-methylpyrrolidin-2-yl)-1H-pyrrolo[3,2-c]pyridin-6-yl)benzamide] | A (Category A: A ≥ 75% degradation) | A (Category A: A ≥ 75% degradation) | ≤ 100 nM | A (Category A: A ≥ 75% degradation) | 
C[C@@H](C#Cc1cccc2c1CN(C1CCC(=O)NC1=O)C2=O)Oc1ccc(C(=O)Nc2cc3[nH]c([C@H]4CCCN4C)cc3cn2)cc1 (stereo partly drawn) [Example 24, 4-(((2S)-4-(2-(2,6-dioxopiperidin-3-yl)-1-oxoisoindolin-4-yl)but-3-yn-2-yl)oxy)-N-(2-((R)-1-methylpyrrolidin-2-yl)-1H-pyrrolo[3,2-c]pyridin-6-yl)benzamide] | A (Category A: A ≥ 75% degradation) | A (Category A: A ≥ 75% degradation) | ≤ 100 nM | A (Category A: A ≥ 75% degradation) | 
CN1CCC[C@@H]1c1cc2cnc(NC(=O)CCCC3CN(c4cccc5c4C(=O)N(C4CCC(=O)NC4=O)C5=O)C3)cc2[nH]1 (stereo partly drawn) [Example 48, 4-(1-(2-(2,6-dioxopiperidin-3-yl)-1,3-dioxoisoindolin-4-yl)azetidin-3-yl)-N-(2-((R)-1-methylpyrrolidin-2-yl)-1H-pyrrolo[3,2-c]pyridin-6-yl)butanamide] |  |  | ≤ 100 nM |  | 
CN1CCC[C@@H]1c1cc2cnc(NC(=O)c3ccc(CCCC#Cc4cccc5c4CN(C4CCC(=O)NC4=O)C5=O)nc3)cc2[nH]1 (stereo partly drawn) [Example 12, 6-(5-(2-(2,6-dioxopiperidin-3-yl)-1-oxoisoindolin-4-yl)pent-4-yn-1-yl)-N-(2-((R)-1-methylpyrrolidin-2-yl)-1H-pyrrolo[3,2-c]pyridin-6-yl)nicotinamide] | A (Category A: A ≥ 75% degradation) | A (Category A: A ≥ 75% degradation) |  | B (Category B: 50% ≤ B < 75% degradation) | ≤ 100 nM
CN1CCC[C@@H]1c1cc2cnc(NC(=O)c3ccc(CCCC#Cc4cccc5c4CN(C4CCC(=O)NC4=O)C5=O)cc3F)cc2[nH]1 (stereo partly drawn) [Example 94, 4-(5-(2-(2,6-dioxopiperidin-3-yl)-1-oxoisoindolin-4-yl)pent-4-yn-1-yl)-2-fluoro-N-(2-((R)-1-methylpyrrolidin-2-yl)-1H-pyrrolo[3,2-c]pyridin-6-yl)benzamide] | A (Category A: A ≥ 75% degradation) | A (Category A: A ≥ 75% degradation) |  | A (Category A: A ≥ 75% degradation) | ≤ 100 nM
CN1CCC[C@@H]1c1cc2cnc(NC(=O)c3ccc(N4CCC(COC5CCN(c6cccc7c6CN(C6CCC(=O)NC6=O)C7=O)CC5)CC4)nc3)cc2[nH]1 (stereo partly drawn) [Example 140, 6-(4-(((1-(2-(2,6-dioxopiperidin-3-yl)-1-oxoisoindolin-4-yl)piperidin-4-yl)oxy)methyl)piperidin-1-yl)-N-(2-((R)-1-methylpyrrolidin-2-yl)-1H-pyrrolo[3,2-c]pyridin-6-yl)nicotinamide] | A (Category A: A ≥ 75% degradation) | A (Category A: A ≥ 75% degradation) |  | B (Category B: 50% ≤ B < 75% degradation) | ≤ 100 nM
CN1CCC[C@@H]1c1cc2cnc(NC(=O)c3ccc(OC4CCN(CC5CCN(c6cccc7c6CN(C6CCC(=O)NC6=O)C7=O)CC5)CC4)cc3)cc2[nH]1 (stereo in doubt) [Example 122, 4-((1-((1-(2-((rel-S)-2,6-dioxopiperidin-3-yl)-1-oxoisoindolin-4-yl)piperidin-4-yl)methyl)piperidin-4-yl)oxy)-N-(2-((R)-1-methylpyrrolidin-2-yl)-1H-pyrrolo[3,2-c]pyridin-6-yl)benzamide] | A (Category A: A ≥ 75% degradation) | A (Category A: A ≥ 75% degradation) |  | A (Category A: A ≥ 75% degradation) | ≤ 100 nM
CN1CCC[C@@H]1c1cc2cnc(NC(=O)c3ccc(OCCN4CCC5(CC4)CCN(c4cccc6c4CN(C4CCC(=O)NC4=O)C6=O)CC5)cc3)cc2[nH]1 (stereo partly drawn) [Example 165, 4-(2-(9-(2-(2,6-dioxopiperidin-3-yl)-1-oxoisoindolin-4-yl)-3,9-diazaspiro[5.5]undecan-3-yl)ethoxy)-N-(2-((R)-1-methylpyrrolidin-2-yl)-1H-pyrrolo[3,2-c]pyridin-6-yl)benzamide] | A (Category A: A ≥ 75% degradation) | A (Category A: A ≥ 75% degradation) |  | A (Category A: A ≥ 75% degradation) | ≤ 100 nM
CN1CCC[C@@H]1c1cc2cnc(NC(=O)c3ccc(CCCC#Cc4cccc5c4CN([C@@H]4CCC(=O)NC4=O)C5=O)cc3)cc2[nH]1 (relative stereo) [Example 103, 4-(5-(2-((rel-R)-2,6-dioxopiperidin-3-yl)-1-oxoisoindolin-4-yl)pent-4-yn-1-yl)-N-(2-((R)-1-methylpyrrolidin-2-yl)-1H-pyrrolo[3,2-c]pyridin-6-yl)benzamide] | A (Category A: A ≥ 75% degradation) | A (Category A: A ≥ 75% degradation) |  | A (Category A: A ≥ 75% degradation) | ≤ 100 nM
CN1CCC[C@@H]1c1cc2cnc(NC(=O)c3ccc(CCCC4CCN(c5cccc6c5CN(C5CCC(=O)NC5=O)C6=O)CC4)cc3F)cc2[nH]1 (mixture of isomers) [Example 174, 4-(3-(1-(2-(2,6-dioxopiperidin-3-yl)-1-oxoisoindolin-4-yl)piperidin-4-yl)propyl)-2-fluoro-N-(2-((R)-1-methylpyrrolidin-2-yl)-1H-pyrrolo[3,2-c]pyridin-6-yl)benzamide] | A (Category A: A ≥ 75% degradation) | A (Category A: A ≥ 75% degradation) |  | A (Category A: A ≥ 75% degradation) | ≤ 100 nM
